IC50, Ki and Kd data for 23 compounds are collected here from patent US9359330B2, “Substituted piperidines as sodium channel blockers” (Purdue Pharma L.P., priority 2013, dated 2016).

The first experiment deals with human Nav1.7 (Homo sapiens (Human), UniProt Q15858). Nature of the experiment: FLIPR sodium dye assay with KCl and test article pre-incubation, recombinant Nav1.7/HEK293 cells. The format is cell-based. The settings on record: Nav1.7, FLIPR assay.
Sequence of human Nav1.7 (Q15858 other isoform, or with tags, fused parts or gaps): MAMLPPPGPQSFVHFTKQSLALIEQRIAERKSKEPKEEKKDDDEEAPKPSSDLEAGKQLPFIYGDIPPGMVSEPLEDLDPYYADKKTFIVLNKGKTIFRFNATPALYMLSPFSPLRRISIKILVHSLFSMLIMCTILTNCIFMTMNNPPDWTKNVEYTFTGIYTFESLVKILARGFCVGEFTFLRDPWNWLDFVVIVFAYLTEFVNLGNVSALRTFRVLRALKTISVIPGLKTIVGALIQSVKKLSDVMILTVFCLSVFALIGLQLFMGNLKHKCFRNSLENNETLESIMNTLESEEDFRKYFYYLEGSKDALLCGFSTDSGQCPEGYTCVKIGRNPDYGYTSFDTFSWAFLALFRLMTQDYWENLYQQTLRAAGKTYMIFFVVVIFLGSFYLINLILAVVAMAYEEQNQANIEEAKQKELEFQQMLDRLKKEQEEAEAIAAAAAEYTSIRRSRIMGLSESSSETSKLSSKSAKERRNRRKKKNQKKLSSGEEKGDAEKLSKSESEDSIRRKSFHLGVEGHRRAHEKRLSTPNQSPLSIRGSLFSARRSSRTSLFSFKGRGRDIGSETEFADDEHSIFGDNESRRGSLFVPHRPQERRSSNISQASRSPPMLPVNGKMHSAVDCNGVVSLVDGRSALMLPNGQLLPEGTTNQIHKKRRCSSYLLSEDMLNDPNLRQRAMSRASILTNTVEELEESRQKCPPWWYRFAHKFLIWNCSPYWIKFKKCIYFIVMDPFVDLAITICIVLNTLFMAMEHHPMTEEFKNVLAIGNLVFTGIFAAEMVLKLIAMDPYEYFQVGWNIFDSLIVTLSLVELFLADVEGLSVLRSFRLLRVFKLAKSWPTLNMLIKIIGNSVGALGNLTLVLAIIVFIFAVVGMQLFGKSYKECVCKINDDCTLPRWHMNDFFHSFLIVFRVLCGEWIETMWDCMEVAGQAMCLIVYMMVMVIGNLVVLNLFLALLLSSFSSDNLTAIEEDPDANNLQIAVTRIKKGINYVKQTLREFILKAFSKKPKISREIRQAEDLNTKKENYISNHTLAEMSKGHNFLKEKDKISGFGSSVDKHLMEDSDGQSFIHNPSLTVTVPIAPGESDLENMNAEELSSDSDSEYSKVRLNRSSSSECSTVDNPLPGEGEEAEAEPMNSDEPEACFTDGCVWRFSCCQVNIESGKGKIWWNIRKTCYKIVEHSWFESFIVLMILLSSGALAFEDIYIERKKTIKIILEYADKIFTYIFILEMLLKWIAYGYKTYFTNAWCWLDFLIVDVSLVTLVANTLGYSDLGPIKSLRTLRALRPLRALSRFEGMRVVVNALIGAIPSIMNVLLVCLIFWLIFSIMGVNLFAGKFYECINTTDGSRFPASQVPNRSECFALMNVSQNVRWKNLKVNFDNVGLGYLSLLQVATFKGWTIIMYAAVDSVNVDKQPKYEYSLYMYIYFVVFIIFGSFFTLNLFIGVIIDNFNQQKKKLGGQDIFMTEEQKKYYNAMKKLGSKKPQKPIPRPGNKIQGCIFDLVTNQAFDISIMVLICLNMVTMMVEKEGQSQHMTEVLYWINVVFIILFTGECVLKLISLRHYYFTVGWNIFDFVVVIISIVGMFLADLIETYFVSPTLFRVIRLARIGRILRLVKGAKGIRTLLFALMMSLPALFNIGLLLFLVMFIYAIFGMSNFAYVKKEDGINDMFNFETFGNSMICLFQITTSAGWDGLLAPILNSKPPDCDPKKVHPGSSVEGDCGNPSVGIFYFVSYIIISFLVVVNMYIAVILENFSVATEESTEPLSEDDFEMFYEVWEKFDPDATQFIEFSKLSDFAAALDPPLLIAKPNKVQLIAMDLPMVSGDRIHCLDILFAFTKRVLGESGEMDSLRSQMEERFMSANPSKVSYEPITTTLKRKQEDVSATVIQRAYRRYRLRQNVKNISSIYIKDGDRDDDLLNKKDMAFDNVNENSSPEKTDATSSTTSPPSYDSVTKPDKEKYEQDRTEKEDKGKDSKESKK
`CN(C)c1ncc(-c2ccccc2C2CCCN(C(=O)c3ccc(OCC(F)(F)F)cc3)C2)cn1` (stereo not drawn) [Compound 40, (3-(2-(2-(dimethylamino)pyrimidin-5-yl)phenyl)piperidin-1-yl)(4-(2,2,2-trifluoroethoxy)phenyl)methanone]: the IC50 (in general, the concentration that inhibits the measured activity by half) is 96 ± 6 nM. Turning to `CN(C)c1ncc(-c2ccccc2C2CCCN(S(=O)(=O)c3ccc(OC(F)(F)F)cc3)C2)cn1` (stereo not drawn) [Compound 33, N,N-dimethyl-5-(2-(1-((4-(trifluoromethoxy)phenyl)sulfonyl)piperidin-3-yl)phenyl)pyrimidin-2-amine], the half-inhibitory concentration (IC50) was 376 ± 29 nM. As for `COc1ncc(-c2ccccc2C2CCCN(C(=O)c3ccc(OCC(F)(F)F)cc3)C2)cn1` (stereo not drawn) [Compound 6, (3-(2-(2-methoxypyrimidin-5-yl)phenyl)piperidin-1-yl)(4-(2,2,2-trifluoroethoxy)phenyl) methanone], the half-inhibitory concentration (IC50) turned out to be 209 ± 16 nM. Turning to `CN(C)c1ncc(-c2ccccc2C2CCCN(S(=O)(=O)Nc3ncns3)C2)cn1` (stereo not drawn) [Compound 43, 3-(2-(2-(dimethylamino)pyrimidin-5-yl)phenyl)-N-(1,2,4-thiadiazol-5-yl)piperidine-1-sulfonamide], the IC50 is more than 20000 nM. The same measure, in the same setting: to `CN(C)c1ncc(-c2ccccc2C2CCCN(C(=O)c3ccc(C(N)=O)cc3)C2)cn1` (stereo not drawn) [Compound 38, 4-(3-(2-(2-(dimethylamino)-pyrimidin-5-yl)phenyl)piperidine-1-carbonyl) benzamide] belongs more than 20000 nM; to `O=C(c1ccc(OCC(F)(F)F)nc1)N1CCCC(c2ccccc2O)C1` (stereo not drawn) [Compound 7, (3-(2-hydroxyphenyl)piperidin-1-yl)(6-(2,2,2-trifluoroethoxy)pyridin-3-yl)methanone], 2570 ± 62 nM; to `CN(C)c1ncc(-c2ccccc2C2CCCN(C(=S)Nc3ccc(C(F)(F)F)cc3)C2)cn1` (stereo not drawn) [Compound 29, 3-(2-(2-(dimethylamino)pyrimidin-5-yl)phenyl)-N-(4-(trifluoromethyl)phenyl)piperidine-1-carbothioamide], more than 20000 nM.

Turning to `CN(C)c1ncc(-c2ccccc2C2CCCN(C(=O)c3ccc(OC(F)(F)F)cc3)C2)cn1` (stereo not drawn) [Compound 39, (3-(2-(2-(dimethylamino)pyrimidin-5-yl)phenyl)piperidin-1-yl)(4-(tri-fluoromethoxy)phenyl)methanone], the IC50 came out at 689 ± 35 nM. The same measure, in the same setting: under `CN(C)c1ncc(-c2ccccc2C2CCCN(C(=O)Nc3ccc(OC(F)(F)F)cc3)C2)cn1` (stereo not drawn) [Compound 31, 3-(2-(2-(dimethylamino)pyrimidin-5-yl)phenyl)-N-(4-(trifluoromethoxy)phenyl)piperidine-1-carboxamide] stands 941 ± 132 nM; under `COc1ncc(-c2ccccc2C2CCCN(C(=O)c3ccc(OCC(F)(F)F)nc3)C2)cn1` (stereo not drawn) [Compound 13, (3-(2-(2-methoxypyrimidin-5-yl)phenyl)piperidin-1-yl)(6-(2,2,2-trifluoroethoxy)pyridin-3-yl)methanone], 873 ± 27 nM; under `COc1ncc(-c2ccccc2C2CCCN(C(=O)c3cccnc3N)C2)cn1` (stereo not drawn) [Compound 28, (2-aminopyridin-3-yl)(3-(2-(2-methoxypyrimidin-5-yl)phenyl)piperidin-1-yl)methanone], 2570 ± 574 nM. Same read-out and setting: to `COc1ccc(NC(=S)N2CCCC(c3ccccc3-c3cnc(N(C)C)nc3)C2)cc1` (stereo not drawn) [Compound 30, 3-(2-(2-(dimethylamino)pyrimidin-5-yl)phenyl)-N-(4-methoxyphenyl)piperidine-1-carbothioamide] belongs 2520 ± 753 nM. On the same count and under the same terms, under `COc1ncccc1-c1ccccc1C1CCCN(C(=O)c2ccc(OCC(F)(F)F)nc2)C1` (stereo not drawn) [Compound 17, (3-(2-(2-methoxypyridin-3-yl)phenyl)piperidin-1-yl)(6-(2,2,2-trifluoroethoxy)pyridin-3-yl)methanone] stands 691 ± 60 nM; under `O=C(c1ccc(OCC(F)(F)F)nc1)N1CCCC(c2ccccc2)C1` (stereo not drawn) [Compound 10, (3-phenylpiperidin-1-yl)(6-(2,2,2-trifluoroethoxy)pyridin-3-yl)methanone], 1600 ± 105 nM; under `COc1ccc(C(=O)N2CCCC(c3ccccc3-c3cnc(N(C)C)nc3)C2)cc1[C@@H](O)CO` (stereo partly drawn) [Compound 34, (3-((R)-1,2-dihydroxyethyl)-4-methoxyphenyl)(3-(2-(2-(dimethylamino)pyrimidin-5-yl)phenyl)piperidin-1-yl)methanone], more than 20000 nM.

Take `COc1ccc(C(=O)N2CCCC(c3ccccc3-c3cnc(N(C)C)nc3)C2)cc1[C@H](O)CO` (stereo partly drawn) [Compound 35, (3-((S)-1,2-dihydroxyethyl)-4-methoxyphenyl)(3-(2-(2-(dimethylamino)pyrimidin-5-yl)phenyl)piperidin-1-yl)methanone]: the IC50 was 10000 to 20000 nM. In the case of `COc1ccc(C(=O)N2CCCC(c3ccccc3-c3cnc(N(C)C)nc3)C2)cc1` (stereo not drawn) [Compound 36, (3-(2-(2-(dimethylamino)pyrimidin-5-yl)phenyl)piperidin-1-yl)(4-methoxyphenyl)methanone], the IC50 amounted to 384 ± 80 nM. On to `CN(C)c1ncc(-c2ccccc2C2CCCN(C(=O)c3cccc(C(N)=O)c3)C2)cn1` (stereo not drawn) [Compound 37, 3-(3-(2-(2-(dimethylamino)-pyrimidin-5-yl)phenyl)piperidine-1-carbonyl) benzamide], for which the IC50 is more than 20000 nM. On to `O=C(c1ccc(OCC(F)(F)F)nc1)N1CCCC(c2ccccc2-c2ccc(F)nc2)C1` (stereo not drawn) [Compound 15, (3-(2-(6-fluoropyridin-3-yl)phenyl)piperidin-1-yl)(6-(2,2,2-trifluoroethoxy)pyridin-3-yl)methanone], for which the concentration for half-maximal inhibition (IC50) amounted to 954 ± 153 nM. Turning to `COc1ccc(S(=O)(=O)N2CCCC(c3ccccc3-c3cnc(N(C)C)nc3)C2)cc1` (stereo not drawn) [Compound 32, 5-(2-(1-((4-methoxyphenyl)sulfonyl)piperidin-3-yl)phenyl)-N,N-dimethylpyrimidin-2-amine], the concentration for half-maximal inhibition (IC50) is 672 ± 118 nM. On the same count and under the same terms, under `O=C(c1ccc(OCC(F)(F)F)nc1)N1CCCC(c2ccccc2-c2ccc(O)nc2)C1` (stereo not drawn) [Compound 19, (3-(2-(6-hydroxypyridin-3-yl)phenyl)piperidin-1-yl)(6-(2,2,2-trifluoroethoxy)pyridin-3-yl)methanone] stands 5470 ± 220 nM. On the same count and under the same terms, under `CN(C)c1ncc(-c2ccccc2C2CCCN(C(=O)c3ccc(OCC(F)(F)F)nc3)C2)cn1` (stereo not drawn) [Compound 18, (3-(2-(2-(dimethylamino)pyrimidin-5-yl)phenyl)piperidin-1-yl)(6-(2,2,2-trifluoroethoxy)pyridin-3-yl)methanone] stands 558 ± 31 nM; under `CSc1ncc(-c2ccccc2C2CCCN(C(=O)c3ccc(OCC(F)(F)F)nc3)C2)cn1` (stereo not drawn) [Compound 16, (3-(2-(2-(methylthio)pyrimidin-5-yl)phenyl)piperidin-1-yl)(6-(2,2,2-trifluoroethoxy)pyridin-3-yl)methanone], 676 ± 39 nM.

In a further experiment the target is hNav1.7 (Homo sapiens (Human), UniProt Q15858). Nature of the experiment: Electrophysiology (EP) whole-cell patch clamp assay, hNav1.7 expressing HEK-293 cells. In kind it is cell-based. To be noted: affinity for inactivated channels; read-out: Nav1.7 Activity EP assay Ki. (Patch clamp records ionic current or voltage across a cell membrane.)
Sequence of hNav1.7 (Q15858 other isoform, or with tags, fused parts or gaps): as above
On to `COc1ncc(-c2ccccc2C2CCCN(C(=O)c3ccc(OCC(F)(F)F)cc3)C2)cn1` (stereo not drawn) [Compound 6, (3-(2-(2-methoxypyrimidin-5-yl)phenyl)piperidin-1-yl)(4-(2,2,2-trifluoroethoxy)phenyl) methanone], for which the Ki came to 511 ± 100 nM. Turning to `COc1ncc(-c2ccccc2C2CCCN(C(=O)c3ccc(OCC(F)(F)F)nc3)C2)cn1` (stereo not drawn) [Compound 13, (3-(2-(2-methoxypyrimidin-5-yl)phenyl)piperidin-1-yl)(6-(2,2,2-trifluoroethoxy)pyridin-3-yl)methanone], the Ki was 2100 ± 384 nM.

The same experiment, now with this note: resting block dissociation constant; read-out: Nav1.7 Activity EP assay Kr.
As for `COc1ncc(-c2ccccc2C2CCCN(C(=O)c3ccc(OCC(F)(F)F)cc3)C2)cn1` (stereo not drawn) [Compound 6, (3-(2-(2-methoxypyrimidin-5-yl)phenyl)piperidin-1-yl)(4-(2,2,2-trifluoroethoxy)phenyl) methanone], the Kd came to 97900 ± 9300 nM.

In the case of `COc1ncc(-c2ccccc2C2CCCN(C(=O)c3ccc(OCC(F)(F)F)nc3)C2)cn1` (stereo not drawn) [Compound 13, (3-(2-(2-methoxypyrimidin-5-yl)phenyl)piperidin-1-yl)(6-(2,2,2-trifluoroethoxy)pyridin-3-yl)methanone], the Kd was 115000 ± 22300 nM.
